Data from patent US11400283B2, “Pulse generating device for delivery of electrical pulses to a desired tissue of a mammal” (SC[…] AB, priority 2017, dated 2022).

Details: rat, 6 hours after electroporation treatment, 800 V/cm, 12 pulses of 250 μs length
Description: FIG. 3 schematically illustrates a Gamma Camera image of a rat taken 6 hours after an electroporation treatment with electrical field strength of 800 V/cm and 12 pulses of 250 μs length. […] In FIG. 3, the injection site, the electroporation site and three reference sites are shown.
Further, investigation of the effect of applied electric pulses of 600, 800, 1000, 1200 V/cm; having 100 and 500 μs pulse length, and 2, 4, 6 or 12 pulses, on the accumulation of the radiolabeled pharmaceutical ^99mTc-DTPA that mimics the Bleomycin, in rat muscular tissue after in vivo electro-permeabilization has been performed. Gamma camera measurements is applied to noninvasively quantify the accumulation of ^99mTc-DTPA in the region treated with electrical pulses as previously described.

## O=C([O-])CN(CCN(CC(=O)[O-])CC(=O)[O-])CCN(CC(=O)[O-])CC(=O)[O-].[99Tc+4] [99Tcm-DTPA, 99Tcm- diethylene-triamine-penta-acetic-acid]
  activity in the electroporated site (Gamma Camera image): high activity
  activity in the reference sites (Gamma Camera image): low activity
